Experimental data published in ChEMBL document CHEMBL3639039, “Small molecule inhibitors of RGS proteins” (2014).

Key:
[1] = target: Regulator of G-protein signaling 16 (Homo sapiens, UniProt O15492); test: Inhibitory Assay: FCPIA Characterization of RGS Inhibitory Activity: CCG-50014 (FIG. 1) was originally identified as a potential inhibitor of RGS8 and RGS16 in a polyplex high throughput screen to identify inhibitors of the RGS-Gα interaction [4]. This activity was confirmed by analyzing the effect of CCG-50014 on several different RGS proteins with freshly reordered compound using multiplexed …
[2] = target: Regulator of G-protein signaling 19 (Homo sapiens, UniProt P49795); test: as above
Regulator of G-protein signaling 19, sequence (P49795 whole entry, looked up, change not shown): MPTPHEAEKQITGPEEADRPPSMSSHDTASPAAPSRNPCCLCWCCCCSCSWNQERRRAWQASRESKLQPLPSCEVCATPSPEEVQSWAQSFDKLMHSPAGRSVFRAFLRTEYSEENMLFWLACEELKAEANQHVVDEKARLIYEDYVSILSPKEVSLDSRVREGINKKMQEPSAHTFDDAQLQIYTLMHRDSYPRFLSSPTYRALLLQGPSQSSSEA

Regulator of G-protein signaling 16, sequence (O15492 whole entry, looked up, stated change not applied): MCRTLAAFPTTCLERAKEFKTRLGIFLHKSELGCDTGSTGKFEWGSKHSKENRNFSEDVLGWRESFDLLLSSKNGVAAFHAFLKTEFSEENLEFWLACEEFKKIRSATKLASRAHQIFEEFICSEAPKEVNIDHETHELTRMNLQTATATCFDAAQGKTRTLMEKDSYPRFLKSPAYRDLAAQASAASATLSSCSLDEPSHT

IC50 [1]: 3500 nM
IC50 [2]: 120 nM
SMILES: Cc1ccc(-n2sc(=O)n(Cc3ccc(F)cc3)c2=O)cc1
